Measured values taken from PubChem BioAssay AID1963860 (Molecular Pharmacology Branch, DTP, NCI, 2024).
“And” between values parts separate entries of the source, which are not always exact repeats. Equal values may be shown once.

Tested on: CN0375-F725-PDC KRAS spheroid viability
Experiment: Anticancer human tumor CN0375-F725-PDC patient-derived colon carcinoma cell line growth inhibition [KRAS2]
Details: spheroids with HUVEC and MSC; for viability, T/C: stronger effect = lower value
Text: Multicellular complex tumor spheroid response to RAS pathway inhibitors in combination with a targeted agents in patient-derived cell lines with oncogenic KRAS variants from multiple cancer types
A high-throughput screen of multi-cell type tumor spheroids was designed to identify active combinations of targeted small molecules and KRAS pathway inhibitors. Complex spheroids include a stromal component modeled by human endothelial cells (HUVEC) and fibroblasts modeled by human mesenchymal stem cells (MSCs). The concentration ranges selected for each drug and investigational agent were based upon clinically achievable concentrations if the clinical Cmax of the agent was known.
Compounds. The drugs and investigational agents: BI-3406 (NSC825286), BAY-293 (NSC824723), batoprotafib (TNO155; NSC825523), sotorasib (AMG 510; NSC818433), MRTX1257 (NSC819558), elimusertib (BAY 1895344; NSC800525), molibresib (GSK525762; NSC774829), temuterkib (LY3214996; NSC803410), venetoclax (NSC766270), alisertib (NSC759677), olaparib (NSC753686), talazoparib (NSC767125), erdafitinib (NSC781556), ipatasertib (NSC767898), cabozantinib (NSC761068), nintedanib (NSC756659), abemaciclib (NSC768073), docetaxel (NSC628503), trametinib (NSC758246), and sapanisertib (NSC764658) were obtained from the National Cancer Institute (NCI) Developmental Therapeutics Program Chemical Repository. The FDA-approved anticancer drug set is available from the Developmental Therapeutics Program. […] The stock solutions were prepared in dimethyl sulfoxide (DMSO, Sigma-Aldrich, St. Louis, MO, cat. D2650) at 800-fold the tested concentration and stored at -70 degrees C prior to their use. All drugs and investigational agents were tested over a range starting from a high concentration at or near the clinical Cmax and decreasing in half-log increments. If the clinical Cmax for an agent had not been determined, the highest concentration tested was 10 microM.
Cell Culture. All cells were maintained in an incubator at 37 degrees C and 5% CO2 with 95% humidity. The PDC lines were cultured according to standard operating procedures established by the NCI PDMR (https://pdmr.cancer.gov/sops/default.htm). Briefly, all PDCs were thawed and cultured in Matrigel-coated flasks prepared with a working solution of 1X Ham's F-12 nutrient mix, without supplementation (Invitrogen, Waltham, MA, cat. 11765054), 100 U/mL penicillin-streptomycin (Invitrogen, cat. 15140122), and 2.5% Matrigel (Corning Inc., Corning, NY, cat. 354248) for the first three passages. All PDCs were cultured in complete DMEM/F-12 media containing advanced DMEM/F-12 (Invitrogen, cat. 12634028), 4.9% defined fetal bovine serum, heat inactivated (HyClone Laboratories Inc., Logan, UT, cat. SH30070.03HI), 389 ng/mL hydrocortisone (Sigma-Aldrich, cat. H4001), 9.7 ng/mL human EGF recombinant protein (Invitrogen, cat. PHG0313), 23.4 microg/mL adenine (Sigma-Aldrich, cat. A2786), 97.3 U/mL penicillin-streptomycin (Invitrogen, cat. 15140122), 1.9 mM L-glutamine (Invitrogen, cat. 25030081), and 9.7 microM Y-27632 dihydrochloride (Tocris Bioscience, Bristol, United Kingdom, cat. 1254). The PDCs were cultured in complete DMEM/F12 media without 9.7 microM Y-27632 dihydrochloride for at least two passages prior to the screen. The established cell line HOP-62 was cultured in RPMI 1640 medium, HEPES (Invitrogen, cat. 22400105) with 10% defined fetal bovine serum (HyClone Laboratories Inc., cat. SH30070.03) and 2 mM L-glutamine (Invitrogen, cat. 25030081). The pooled donor HUVEC were cultured in endothelial cell growth medium 2 (PromoCell, Heidelberg, Germany, cat. C-22011) and the hMSC were cultured in mesenchymal stem cell growth medium 2 (PromoCell, cat. C-28009). For all experiments, HUVEC and hMSC were used at passages </=5, while the malignant cell lines were used at passages </=15. […]

[1] = compound alone, run of 08/26/2021
[2] = compound alone, run of 09/02/2021
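Note: spheroids exposed to agents for 7 days.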

SMILES	viability, T/C (compound 0.0316 µM)	viability, T/C (compound 0.1 µM)	viability, T/C (compound 0.316 µM)	viability, T/C (compound 1 µM)	IC50 [1]	IC50 [2]	viability, T/C (compound 0.0001 µM)	viability, T/C (compound 0.000316 µM)	viability, T/C (compound 0.001 µM)	viability, T/C (compound 0.00316 µM)	viability, T/C (compound 0.01 µM)	IC50 (curve of compound)	viability, T/C (compound 3.16 µM)	viability, T/C (compound 10 µM)	IC50 (compound alone, run of 08/19/2021) [µM]
C=CC(=O)N1CCN(c2nc(OCC3CCCN3C)nc3c2CCN(c2cccc4cccc(C)c24)C3)CC1CC#N (stereo not given)	100% [middle of 17 runs]	100% [middle of 17 runs]	98.1% [middle of 17 runs]	92.7% [middle of 17 runs]	1.82 µM [middle of 5 runs]	2.09 µM [middle of 5 runs]	–	–	–	–	–	–	–	–	–
CC(=O)Nc1cccc(-n2c(=O)n(C3CC3)c(=O)c3c(Nc4ccc(I)cc4F)n(C)c(=O)c(C)c32)c1	34.5% [middle of 5 runs]	–	–	–	–	–	97.8% [middle of 5 runs]	84.8% [middle of 5 runs]	71.6% [middle of 5 runs]	59.6% [middle of 5 runs]	47.5% [middle of 5 runs]	7.97 nM [middle of 5 runs]	–	–	–
CC(=O)OC12COC1CC(O)C1(C)C(=O)C(O)C3=C(C)C(OC(=O)C(O)C(NC(=O)OC(C)(C)C)c4ccccc4)CC(O)(C(OC(=O)c4ccccc4)C21)C3(C)C (stereo not given)	97.7% [middle of 5 runs]	89.3% [middle of 5 runs]	89% [middle of 5 runs]	83.2% [middle of 5 runs]	–	–	–	–	–	–	101% [middle of 5 runs]	> 3.16 µM	80.8% [middle of 5 runs]	–	–
CC(C)NCC(C(=O)N1CCN(c2ncnc3c2C(C)CC3O)CC1)c1ccc(Cl)cc1 (stereo not given)	103% [middle of 5 runs]	102% [middle of 5 runs]	96.5% [middle of 5 runs]	93.9% [middle of 5 runs]	–	–	–	–	–	–	–	> 10 µM	91.8% [middle of 5 runs]	76.8% [middle of 5 runs]	–
CC(C)n1nc(-c2ccc3oc(N)nc3c2)c2c(N)ncnc21	55.5% [middle of 5 runs]	45.2% [middle of 5 runs]	–	–	–	–	–	97.5% [middle of 5 runs]	93.1% [middle of 5 runs]	79% [middle of 5 runs]	70.7% [middle of 5 runs]	64.7 nM [middle of 5 runs]	–	–	–
CC1(C)CCC(CN2CCN(c3ccc(C(=O)NS(=O)(=O)c4ccc(NCC5CCOCC5)c([N+](=O)[O-])c4)c(Oc4cnc5[nH]ccc5c4)c3)CC2)=C(c2ccc(Cl)cc2)C1	106% [middle of 5 runs]	102% [middle of 5 runs]	106% (3×) and 95.8% and 104%	104% [middle of 5 runs]	–	–	–	–	–	–	–	–	67.7% [middle of 5 runs]	–	–
CC1COCCN1c1cc(-c2ccnn2C)c2ccnc(-c3ccn[nH]3)c2n1 (stereo not given)	97.3% [middle of 5 runs]	90.8% [middle of 5 runs]	85.7% [middle of 5 runs]	72.1% [middle of 5 runs]	–	–	–	–	–	–	105% [middle of 5 runs]	> 3.16 µM	58.4% [middle of 5 runs]	–	–
CC1OCC2(CCN(c3cnc(Sc4ccnc(N)c4Cl)c(N)n3)CC2)C1N (stereo not given)	98.4% and 98.5% and 100%	94.9% [middle of 19 runs]	89.6% [middle of 19 runs]	–	> 10 µM	> 10 µM	–	–	–	–	–	> 10 µM	78.7% [middle of 20 runs]	–	> 10
CCN1CCN(Cc2ccc(Nc3ncc(F)c(-c4cc(F)c5nc(C)n(C(C)C)c5c4)n3)nc2)CC1	91.2% [middle of 5 runs]	97.8% [middle of 5 runs]	107% [middle of 5 runs]	101% [middle of 5 runs]	–	–	–	–	–	102% [middle of 5 runs]	95.6% [middle of 5 runs]	> 1 µM	–	–	–
CCNC(=O)CC1N=C(c2ccc(Cl)cc2)c2cc(OC)ccc2-n2c(C)nnc21 (stereo not given)	100% [middle of 5 runs]	97.1% [middle of 5 runs]	90.4% [middle of 5 runs]	84.2% [middle of 5 runs]	–	–	–	–	–	–	–	> 10 µM	74.3% [middle of 5 runs]	58.6% [middle of 5 runs]	–
CN(C)C/C=C/C(=O)Nc1cc2c(Nc3ccc(F)c(Cl)c3)ncnc2cc1O[C@H]1CCOC1	79.2% [middle of 5 runs]	81.1% [middle of 5 runs]	–	–	–	–	–	105% [middle of 5 runs]	94.1% [middle of 5 runs]	90.4% [middle of 5 runs]	88.3% [middle of 5 runs]	> 0.1 µM	–	–	–
COc1cc(Nc2ncc3c(n2)-c2ccc(Cl)cc2C(c2c(F)cccc2OC)=NC3)ccc1C(=O)O	102% [middle of 5 runs]	101% [middle of 5 runs]	93.7% [middle of 5 runs]	96.3% [middle of 5 runs]	–	–	–	–	–	–	–	> 10 µM	94.8% [middle of 5 runs]	78.3% [middle of 5 runs]	–
COc1cc(OC)cc(N(CCNC(C)C)c2ccc3ncc(-c4cnn(C)c4)nc3c2)c1	94.3% [middle of 5 runs]	91.7% [middle of 5 runs]	92.1% [middle of 5 runs]	103% [middle of 5 runs]	–	–	–	–	–	–	–	5.06 µM [middle of 4 runs]	82.9% [middle of 5 runs]	2.52% [middle of 5 runs]	–
Cn1nccc1Nc1nccc(-c2cc3c(s2)C(C)(C)N(CCN2CCOCC2)C3=O)n1	104% [middle of 5 runs]	90% [middle of 5 runs]	77.5% [middle of 5 runs]	72.3% [middle of 5 runs]	–	–	–	–	–	–	–	5.56 µM [middle of 5 runs]	56.5% [middle of 5 runs]	44.6% [middle of 5 runs]	–
Cn1ncnc1[C@H]1c2n[nH]c(=O)c3cc(F)cc(c23)N[C@@H]1c1ccc(F)cc1	102% [middle of 5 runs]	96% [middle of 5 runs]	–	–	–	–	–	107% [middle of 5 runs]	102% [middle of 5 runs]	99.8% [middle of 5 runs]	101% [middle of 5 runs]	> 0.1 µM	–	–	–
O=C(c1cc(Cc2n[nH]c(=O)c3ccccc23)ccc1F)N1CCN(C(=O)C2CC2)CC1	107% [middle of 5 runs]	106% [middle of 5 runs]	102% [middle of 5 runs]	107% [middle of 5 runs]	–	–	–	–	–	–	–	> 10 µM	105% [middle of 5 runs]	96.7% [middle of 5 runs]	–
